Values of other authors, collected in patent publication US20160287529A1, “METHOD FOR TREATING AND PREVENTING RECURRENT INTERDIGITAL TINEA PEDIS (ATHLETE'S FOOT) DISEASE” (priority 2015, published 2016).

System: fungal infections of the skin and nails of the human foot
Details: topical treatment

SMILES | effectiveness compared with the allylamines
C=CCCCCCCCCC(=O)O [undecenoic acid] | less effective
Cc1cccc(N(C)C(=S)Oc2ccc3ccccc3c2)c1 [tolnaftate] | less effective
